Measured values taken from ChEMBL document CHEMBL1132842, “Novel antifungals based on 4-substituted imidazole: solid-phase synthesis of substituted aryl sulfonamides towards optimization of in vitro activity” (Bioorg Med Chem Lett, 2000).
In brackets after ≈: the same amount, converted by molar mass.

Legend:
mold = assay: Concentration required to inhibit growth of pathogenic molds; format: functional
Saccharomyces cerevisiae [1] = assay: Concentration required to inhibit 65% growth of selected sets of Yeasts; format: functional
Trichophyton rubrum = assay: Minimum concentration required to inhibit the growth of Trichophyton rubrum; format: functional
Nakaseomyces glabratus = assay: Minimum concentration required to inhibit the growth of Candida glabrata; format: functional
Candida albicans [2] = assay: Minimum concentration required to inhibit the growth of Candida albicans 1; format: functional
Cryptococcus neoformans = assay: Minimum concentration required to inhibit the growth of Cryptococcus neoformans; format: functional
Sporothrix schenckii = assay: Minimum concentration required to inhibit the growth of Sporothrix schenck ii; format: functional
Candida tropicalis = assay: Minimum concentration required to inhibit the growth of Candida tropicalis; format: functional
Trichophyton benhamiae = assay: Minimum concentration required to inhibit the growth of Trichophyton mentagrophytes; format: functional, Arthroderma benhamiae
Kluyveromyces marxianus = assay: Minimum concentration required to inhibit the growth of Candida kefyr; format: functional
Pichia kudriavzevii = assay: Minimum concentration required to inhibit the growth of Candida krusei; format: functional
Candida parapsilosis = assay: Minimum concentration required to inhibit the growth of Candida parapsilosis; format: functional; details: Lodderomyces parapsilosis
Candida albicans [3] = assay: Minimum concentration required to inhibit the growth of Candida albicans 2; format: functional
Microsporum canis = assay: Minimum concentration required to inhibit the growth of […] canis; format: functional
Aspergillus fumigatus = assay: Minimum concentration required to inhibit the growth of Aspergillus fumigatus; format: functional
Candida albicans [4] = assay: Minimum concentration required to inhibit the growth of Candida albicans 4; format: functional
Saccharomyces cerevisiae [5] = assay: Concentration required to inhibit 65% growth of Yeast strains; format: functional

O=S(=O)(c1ccc(-c2ccc(Cl)cc2)cc1)N(Cc1c[nH]cn1)CC1CCCCC1
pLADM (mold): 4.4 | pLADY (Saccharomyces cerevisiae [1]): 6.3

O=S(=O)(c1ccc(-c2ccc(F)cc2)cc1)N(Cc1c[nH]cn1)CC1CCCCC1
pLADM (mold): 4.4 | pLADY (Saccharomyces cerevisiae [1]): 6.3

O=S(=O)(c1ccc(N2CCN(c3ccc(F)cc3)CC2)cc1)N(CCc1ccccc1F)Cc1c[nH]cn1
pLADM (mold): 4.4 | pLADY (Saccharomyces cerevisiae [1]): 6.8

CCC(C)n1ncn(-c2ccc(N3CCN(c4ccc(OCC5COC(Cn6cncn6)(c6ccc(Cl)cc6Cl)O5)cc4)CC3)cc2)c1=O (stereo not given) [ITRACONAZOLE]
MIC (Trichophyton rubrum): ≤ 0.1 µM | MIC (Nakaseomyces glabratus): 1 µM (≈ 0.706 µg/mL) | MIC (Candida albicans [2]): > 10 µM | MIC (Cryptococcus neoformans): ≤ 0.1 µM | MIC (Sporothrix schenckii): 10 µM (≈ 7.06 µg/mL) | MIC (Candida tropicalis): 0.1 µM (≈ 0.0706 µg/mL) | MIC (Trichophyton benhamiae): 0.1 µM (≈ 0.0706 µg/mL) | MIC (Kluyveromyces marxianus): ≤ 0.1 µM | MIC (Pichia kudriavzevii): 1 µM (≈ 0.706 µg/mL) | MIC (Candida parapsilosis): ≤ 0.1 µM | MIC (Candida albicans [3]): ≤ 0.1 µM | MIC (Microsporum canis): ≤ 0.1 µM | MIC (Aspergillus fumigatus): 1 µM (≈ 0.706 µg/mL) | MIC (Candida albicans [4]): > 10 µM

CC(C)C(C(C)C)N(Cc1c[nH]cn1)S(=O)(=O)c1ccc(-c2ccc(F)cc2)cc1
MIC (Trichophyton rubrum): 1 µM (≈ 0.43 µg/mL) | pLADY (Saccharomyces cerevisiae [5]): 6.8 | MIC (Nakaseomyces glabratus): 1 µM (≈ 0.43 µg/mL) | MIC (Candida albicans [2]): > 10 µM | MIC (Cryptococcus neoformans): ≤ 0.1 µM | MIC (Sporothrix schenckii): > 10 µM | MIC (Candida tropicalis): ≤ 0.1 µM | MIC (Trichophyton benhamiae): 10 µM (≈ 4.3 µg/mL) | pLADM (mold): 5.2 | MIC (Kluyveromyces marxianus): ≤ 0.1 µM | MIC (Pichia kudriavzevii): 1 µM (≈ 0.43 µg/mL) | MIC (Candida parapsilosis): ≤ 0.1 µM | MIC (Candida albicans [3]): ≤ 0.1 µM | MIC (Microsporum canis): 1 µM (≈ 0.43 µg/mL) | MIC (Aspergillus fumigatus): 10 µM (≈ 4.3 µg/mL) | MIC (Candida albicans [4]): 1 µM (≈ 0.43 µg/mL)

O=S(=O)(c1ccc(N2CCN(c3ccc(F)cc3)CC2)cc1)N(Cc1c[nH]cn1)CC1CCCCC1
MIC (Trichophyton rubrum): 10 µM (≈ 5.12 µg/mL) | pLADY (Saccharomyces cerevisiae [5]): 6.9 | MIC (Nakaseomyces glabratus): 10 µM (≈ 5.12 µg/mL) | MIC (Candida albicans [2]): > 10 µM | MIC (Cryptococcus neoformans): 1 µM (≈ 0.512 µg/mL) | MIC (Sporothrix schenckii): > 10 µM | MIC (Candida tropicalis): ≤ 0.1 µM | MIC (Trichophyton benhamiae): > 10 µM | pLADM (mold): 4 | MIC (Kluyveromyces marxianus): ≤ 0.1 µM | MIC (Pichia kudriavzevii): 10 µM (≈ 5.12 µg/mL) | MIC (Candida parapsilosis): ≤ 0.1 µM | MIC (Candida albicans [3]): ≤ 0.1 µM | MIC (Microsporum canis): 10 µM (≈ 5.12 µg/mL) | MIC (Aspergillus fumigatus): > 10 µM | MIC (Candida albicans [4]): ≤ 0.1 µM

CCCCCCN(Cc1c[nH]cn1)S(=O)(=O)c1ccc(-c2ccc(F)cc2)cc1
pLADM (mold): 4.8 | pLADY (Saccharomyces cerevisiae [1]): 5.9

COc1ccc(-c2ccc(S(=O)(=O)N(Cc3c[nH]cn3)C(C(C)C)C(C)C)cc2)cc1
pLADM (mold): 5 | pLADY (Saccharomyces cerevisiae [1]): 6.4

O=S(=O)(c1ccc(N2CCCCC2)cc1)N(CCc1ccccc1F)Cc1c[nH]cn1
pLADM (mold): 4.2 | pLADY (Saccharomyces cerevisiae [1]): 5.9

O=S(=O)(c1ccc(N2CCN(c3ccc(Cl)c(Cl)c3)CC2)cc1)N(CCc1ccccc1F)Cc1c[nH]cn1
pLADM (mold): 4 | pLADY (Saccharomyces cerevisiae [1]): 5.8

O=S(=O)(c1ccc(CN2CCN(c3ccccn3)CC2)cc1)N(Cc1c[nH]cn1)CC1CCCCC1
pLADM (mold): 4 | pLADY (Saccharomyces cerevisiae [1]): 6.4

CCCCOc1ccc(S(=O)(=O)N(Cc2c[nH]cn2)C(CC)C2CCCCC2)cc1 (stereo not given)
MIC (Trichophyton rubrum): 1 µM (≈ 0.434 µg/mL) | MIC (Nakaseomyces glabratus): 1 µM (≈ 0.434 µg/mL) | MIC (Candida albicans [2]): > 10 µM | MIC (Cryptococcus neoformans): 1 µM (≈ 0.434 µg/mL) | MIC (Sporothrix schenckii): > 10 µM | MIC (Candida tropicalis): 1 µM (≈ 0.434 µg/mL) | MIC (Trichophyton benhamiae): 10 µM (≈ 4.34 µg/mL) | MIC (Kluyveromyces marxianus): ≤ 0.1 µM | MIC (Pichia kudriavzevii): 1 µM (≈ 0.434 µg/mL) | MIC (Candida parapsilosis): ≤ 0.1 µM | MIC (Candida albicans [3]): ≤ 0.1 µM | MIC (Microsporum canis): 1 µM (≈ 0.434 µg/mL) | MIC (Aspergillus fumigatus): > 10 µM | MIC (Candida albicans [4]): ≤ 0.1 µM

CN(c1ccc(S(=O)(=O)N(Cc2c[nH]cn2)CC2CCCCC2)cc1)C1CCCCC1
pLADM (mold): 4 | pLADY (Saccharomyces cerevisiae [1]): 5.5

CC(C)C(C(C)C)N(Cc1c[nH]cn1)S(=O)(=O)c1ccc(-c2ccccc2)cc1
pLADM (mold): 5.2 | pLADY (Saccharomyces cerevisiae [1]): 6.6

O=S(=O)(c1ccc(N2CCOCC2)cc1)N(CCc1ccccc1F)Cc1c[nH]cn1
pLADM (mold): 4 | pLADY (Saccharomyces cerevisiae [1]): 4.5

O=S(=O)(c1ccc(CNCCc2ccc(Cl)cc2Cl)cc1)N(Cc1c[nH]cn1)CC1CCCCC1
MIC (Trichophyton rubrum): 10 µM (≈ 5.36 µg/mL) | pLADY (Saccharomyces cerevisiae [5]): 6.5 | MIC (Nakaseomyces glabratus): 10 µM (≈ 5.36 µg/mL) | MIC (Candida albicans [2]): 10 µM (≈ 5.36 µg/mL) | MIC (Cryptococcus neoformans): 1 µM (≈ 0.536 µg/mL) | MIC (Sporothrix schenckii): > 10 µM | MIC (Candida tropicalis): 1 µM (≈ 0.536 µg/mL) | MIC (Trichophyton benhamiae): > 10 µM | pLADM (mold): 4.4 | MIC (Kluyveromyces marxianus): ≤ 0.1 µM | MIC (Pichia kudriavzevii): 1 µM (≈ 0.536 µg/mL) | MIC (Candida parapsilosis): < 0.1 µM | MIC (Candida albicans [3]): ≤ 0.1 µM | MIC (Microsporum canis): 10 µM (≈ 5.36 µg/mL) | MIC (Aspergillus fumigatus): > 10 µM | MIC (Candida albicans [4]): 1 µM (≈ 0.536 µg/mL)

O=S(=O)(c1ccc(COc2ccc(F)cc2)cc1)N(Cc1c[nH]cn1)CC1CCCCC1
pLADM (mold): 4.4 | pLADY (Saccharomyces cerevisiae [1]): 6.1

C[C@@H](c1ncncc1F)[C@](O)(Cn1cncn1)c1ccc(F)cc1F [VORICONAZOLE]
MIC (Trichophyton rubrum): ≤ 0.1 µM | MIC (Nakaseomyces glabratus): 10 µM (≈ 3.49 µg/mL) | MIC (Candida albicans [2]): > 10 µM | MIC (Cryptococcus neoformans): 1 µM (≈ 0.349 µg/mL) | MIC (Sporothrix schenckii): > 10 µM | MIC (Candida tropicalis): 1 µM (≈ 0.349 µg/mL) | MIC (Trichophyton benhamiae): ≤ 0.1 µM | MIC (Kluyveromyces marxianus): ≤ 0.1 µM | MIC (Pichia kudriavzevii): 10 µM (≈ 3.49 µg/mL) | MIC (Candida parapsilosis): ≤ 0.1 µM | MIC (Candida albicans [3]): ≤ 0.1 µM | MIC (Microsporum canis): 1 µM (≈ 0.349 µg/mL) | MIC (Aspergillus fumigatus): 1 µM (≈ 0.349 µg/mL)

CC(=O)Nc1cccc(-c2ccc(S(=O)(=O)N(Cc3c[nH]cn3)CC3CCCCC3)cc2)c1
pLADM (mold): 4 | pLADY (Saccharomyces cerevisiae [1]): 4.1

O=S(=O)(c1ccc(N2CCN(c3ccccn3)CC2)cc1)N(Cc1c[nH]cn1)CC1CCCCC1
pLADM (mold): 4 | pLADY (Saccharomyces cerevisiae [1]): 6.4

O=S(=O)(c1ccc(NCCc2ccc(Cl)cc2Cl)cc1)N(Cc1c[nH]cn1)CC1CCCCC1
pLADM (mold): 4 | pLADY (Saccharomyces cerevisiae [1]): 5.4

O=S(=O)(c1ccc(-c2ccsc2)cc1)N(Cc1c[nH]cn1)CC1CCCCC1
pLADM (mold): 4.4 | pLADY (Saccharomyces cerevisiae [1]): 6.1

O=S(=O)(c1ccc(-c2ccc(F)cc2)cc1)N(Cc1c[nH]cn1)C1CCCCC1
pLADM (mold): 4.4 | pLADY (Saccharomyces cerevisiae [1]): 5.8

CC(C)C(C(C)C)N(Cc1c[nH]cn1)S(=O)(=O)c1ccc(-c2ccc(Cl)cc2)cc1
pLADM (mold): 5.4 | pLADY (Saccharomyces cerevisiae [1]): 6.4

CCC(CC)Nc1ccc(S(=O)(=O)N(Cc2c[nH]cn2)C(C(C)C)C(C)C)cc1
pLADM (mold): 4 | pLADY (Saccharomyces cerevisiae [1]): 6.5

CN1CCN(c2ccc(S(=O)(=O)N(Cc3c[nH]cn3)CC3CCCCC3)cc2)CC1
pLADM (mold): 4 | pLADY (Saccharomyces cerevisiae [1]): 4.6

COc1ccc(-c2ccc(S(=O)(=O)N(Cc3c[nH]cn3)CC3CCCCC3)cc2)cc1
pLADM (mold): 4.4 | pLADY (Saccharomyces cerevisiae [1]): 6.3

Cc1ccc(N2CCN(c3ccc(S(=O)(=O)N(Cc4c[nH]cn4)CC4CCCCC4)cc3)CC2)cc1
pLADM (mold): 4 | pLADY (Saccharomyces cerevisiae [1]): 6.3

O=S(=O)(c1ccc(CNCCc2ccc(Cl)cc2Cl)cc1)N(CCc1ccc(F)cc1)Cc1c[nH]cn1
pLADM (mold): 4.4 | pLADY (Saccharomyces cerevisiae [1]): 6.1

O=S(=O)(c1ccc(N2CCN(c3cccc(C(F)(F)F)c3)CC2)cc1)N(Cc1c[nH]cn1)CC1CCCCC1
pLADM (mold): 4 | pLADY (Saccharomyces cerevisiae [1]): 6.3

CC(C)C(C(C)C)N(Cc1c[nH]cn1)S(=O)(=O)c1ccc(N2CCN(c3ccc(F)cc3)CC2)cc1
pLADM (mold): 4 | pLADY (Saccharomyces cerevisiae [1]): 6.4

O=S(=O)(c1ccc(N2CCN(c3ccccc3Cl)CC2)cc1)N(CCc1ccccc1F)Cc1c[nH]cn1
pLADM (mold): 4.2 | pLADY (Saccharomyces cerevisiae [1]): 6

CCCCOc1ccc(S(=O)(=O)N(CCc2ccc(F)cc2)Cc2c[nH]cn2)cc1
MIC (Trichophyton rubrum): 1 µM (≈ 0.432 µg/mL) | MIC (Nakaseomyces glabratus): 10 µM (≈ 4.32 µg/mL) | MIC (Candida albicans [2]): > 10 µM | MIC (Cryptococcus neoformans): 1 µM (≈ 0.432 µg/mL) | MIC (Sporothrix schenckii): > 10 µM | MIC (Candida tropicalis): ≤ 0.1 µM | MIC (Trichophyton benhamiae): > 10 µM | MIC (Kluyveromyces marxianus): ≤ 0.1 µM | MIC (Pichia kudriavzevii): > 10 µM | MIC (Candida parapsilosis): 1 µM (≈ 0.432 µg/mL) | MIC (Candida albicans [3]): ≤ 0.1 µM | MIC (Microsporum canis): 10 µM (≈ 4.32 µg/mL) | MIC (Aspergillus fumigatus): > 10 µM | MIC (Candida albicans [4]): 10 µM (≈ 4.32 µg/mL)
